Legend:
Bscl2-GFP reporter = format: cell-based, mouse; details: 24 h exposure; in absence and presence of S9
Text: (§1) The genotoxicity can be measured by the ToxTracker® assay (Toxys, Leiden, The Netherlands) as further described herein. The ToxTracker® assay can be applied for pure substances or for compositions. The ToxTracker assay is a panel of six validated GFP-based mouse embryonic stem (mES) reporter cell lines that can be used to identify the biological reactivity and potential carcinogenic properties of newly developed compounds in a single test. ToxTracker is a mammalian stem cell-based assay that monitors activation of specific cellular signalling pathways for detection of the biological reactivity of compounds. In contrast to the cancer-derived cell lines that are currently used for in vitro genotoxicity testing, stem cells are genetically stable and proficient in all cellular pathways required for accurate detection of potentially carcinogenic properties of compounds. Extensive whole-genome transcription profiling has led to identification of a panel of biomarker genes that are preferentially activated upon exposure to different classes of carcinogens and toxicants. […] A compound is considered not genotoxic when it induces a smaller than 2-fold increase in GFP expression in any of the reporters measured by the ToxTracker® assay (Toxys, Leiden, The Netherlands).
(§2) The genotoxicity was measured by the ToxTracker® assay (Toxys, Leiden, The Netherlands), which can be applied for pure substances or for compositions. […]
(§3) The six independent mES reporter cell lines were seeded in gelatin-coated 96-well cell culture plates in 200 μl mES cell medium (50.000 cells per well). […] Induction of the GFP reporters was determined after 24 h exposure using a flow cytometer. Only GFP expression in intact single cells was determined. Mean GFP fluorescence was measured and used to calculate GFP reporter induction compared to a vehicle control treatment. Cytotoxicity was estimated by cell count after 24 h exposure using a flow cytometer and was expressed as percentage of intact cells after 24 h exposure compared to vehicle exposed controls. […]

Btg2-GFP reporter = format: cell-based, mouse; details: 24 h exposure; in absence and presence of S9
Text: as §1, §2, §3

Rtkn-GFP reporter = format: cell-based, mouse; details: 24 h exposure; in absence and presence of S9
Text: as §1, §2, §3

[1] = test system: GFP-based mouse embryonic stem (mES) reporter cell lines; details: ToxTracker; positive = at least 2 fold increase in GFP expression in any reporter
Text: The genotoxicity can be measured by the ToxTracker® assay (Toxys, Leiden, The Netherlands) as further described herein. The ToxTracker® assay can be applied for pure substances or for compositions. The ToxTracker assay is a panel of six validated GFP-based mouse embryonic stem (mES) reporter cell lines that can be used to identify the biological reactivity and potential carcinogenic properties of newly developed compounds in a single test. ToxTracker is a mammalian stem cell-based assay that monitors activation of specific cellular signalling pathways for detection of the biological reactivity of compounds. […] A compound is considered not genotoxic when it induces a smaller than 2-fold increase in GFP expression in any of the reporters measured by the ToxTracker® assay (Toxys, Leiden, The Netherlands).
as §2
as §3, with “treatment.” for “treatment. Cytotoxicity was estimated by cell count after 24 h exposure using a flow cytometer and was expressed as percentage of intact cells after 24 h exposure compared to vehicle exposed controls.”

O=C(CCN1CC1)OCC(CO)(COC(=O)CCN1CC1)COC(=O)CCN1CC1 [CL-427, 1-Aziridinepropanoic acid, 1,1′-[2-[[3-(1-aziridinyl)-1-oxopropoxy]methyl]-2-(hydroxymethyl)-1,3-propanediyl]ester]
activation of the Bscl2-GFP reporter (Bscl2-GFP reporter): activated | activation of the Btg2-GFP reporter (Btg2-GFP reporter): activated | activation of the Rtkn-GFP reporter (Rtkn-GFP reporter): activated | genotoxicity conclusion [1]: considered genotoxic
